In ChEMBL document CHEMBL4261615, “Design, synthesis, biological evaluation and cellular imaging of imidazo[4,5-b]pyridine derivatives as potent and selective TAM inhibitors” (Bioorg Med Chem, 2018) one finds inhibition, IC50 and Activity data, which are given here for 14 compounds.

The target of assay [1] is T1, Tyrosine-protein kinase receptor TYRO3 (Homo sapiens) (UniProt Q06418).
T1 sequence (whole entry): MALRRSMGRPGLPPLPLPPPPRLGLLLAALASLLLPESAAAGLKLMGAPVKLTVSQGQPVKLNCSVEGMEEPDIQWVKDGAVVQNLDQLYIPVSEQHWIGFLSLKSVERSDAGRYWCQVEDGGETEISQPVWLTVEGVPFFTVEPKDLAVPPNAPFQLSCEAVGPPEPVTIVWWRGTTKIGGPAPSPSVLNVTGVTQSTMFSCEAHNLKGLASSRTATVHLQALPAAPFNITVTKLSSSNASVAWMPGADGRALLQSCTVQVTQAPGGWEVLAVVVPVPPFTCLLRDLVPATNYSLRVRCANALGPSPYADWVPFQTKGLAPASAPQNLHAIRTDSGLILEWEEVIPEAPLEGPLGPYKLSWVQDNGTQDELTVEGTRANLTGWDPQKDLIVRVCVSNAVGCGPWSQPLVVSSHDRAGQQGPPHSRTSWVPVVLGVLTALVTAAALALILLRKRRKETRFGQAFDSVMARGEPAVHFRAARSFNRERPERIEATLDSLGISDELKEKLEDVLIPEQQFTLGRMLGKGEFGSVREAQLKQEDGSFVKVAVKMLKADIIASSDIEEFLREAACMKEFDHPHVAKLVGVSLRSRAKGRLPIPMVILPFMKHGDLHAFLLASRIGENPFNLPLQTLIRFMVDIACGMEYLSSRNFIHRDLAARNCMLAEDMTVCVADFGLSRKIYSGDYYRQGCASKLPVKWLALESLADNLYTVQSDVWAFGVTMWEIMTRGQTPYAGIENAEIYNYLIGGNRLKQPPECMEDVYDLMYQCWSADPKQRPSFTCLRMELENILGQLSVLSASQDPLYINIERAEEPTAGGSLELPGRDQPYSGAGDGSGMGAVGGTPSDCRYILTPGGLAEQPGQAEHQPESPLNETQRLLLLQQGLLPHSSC
Description: Inhibition of recombinant GST-tagged human Tyro3 (451 to 890 residues) cytoplasmic domain expressed in Baculovirus expression system using poly (Glu-Ala-Tyr) peptide as substrate after 1.5 hrs by ELISA. Background: ELISA stands for enzyme-linked immunosorbent assay.

Assay [2] addresses T2, Tyrosine-protein kinase Mer (Homo sapiens) (UniProt Q12866).
T2 sequence (whole entry): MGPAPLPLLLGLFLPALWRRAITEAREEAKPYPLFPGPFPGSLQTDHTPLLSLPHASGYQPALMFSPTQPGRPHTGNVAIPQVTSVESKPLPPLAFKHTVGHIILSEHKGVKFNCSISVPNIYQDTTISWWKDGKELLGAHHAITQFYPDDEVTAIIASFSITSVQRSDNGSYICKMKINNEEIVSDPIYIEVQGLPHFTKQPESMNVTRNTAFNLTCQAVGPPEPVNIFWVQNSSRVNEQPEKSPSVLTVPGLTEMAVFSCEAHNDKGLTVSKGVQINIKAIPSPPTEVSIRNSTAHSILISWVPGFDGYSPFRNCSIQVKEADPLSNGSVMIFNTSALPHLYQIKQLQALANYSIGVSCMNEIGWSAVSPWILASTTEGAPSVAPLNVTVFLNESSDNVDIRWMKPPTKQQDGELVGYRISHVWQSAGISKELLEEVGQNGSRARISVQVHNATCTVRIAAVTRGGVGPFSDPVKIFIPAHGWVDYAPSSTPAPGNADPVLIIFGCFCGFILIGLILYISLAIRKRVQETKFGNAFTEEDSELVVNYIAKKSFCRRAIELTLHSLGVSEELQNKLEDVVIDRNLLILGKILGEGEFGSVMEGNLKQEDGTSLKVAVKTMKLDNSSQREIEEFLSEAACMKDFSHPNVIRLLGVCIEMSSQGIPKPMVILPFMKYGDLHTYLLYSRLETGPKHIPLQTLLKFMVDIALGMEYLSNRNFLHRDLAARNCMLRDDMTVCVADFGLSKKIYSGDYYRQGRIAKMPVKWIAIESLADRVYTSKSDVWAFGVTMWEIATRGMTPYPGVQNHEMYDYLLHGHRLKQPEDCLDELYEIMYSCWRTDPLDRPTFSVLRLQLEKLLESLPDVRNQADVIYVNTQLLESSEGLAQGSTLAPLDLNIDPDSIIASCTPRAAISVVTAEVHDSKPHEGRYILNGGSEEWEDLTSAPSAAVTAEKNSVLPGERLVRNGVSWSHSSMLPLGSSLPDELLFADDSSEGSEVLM
Description: Inhibition of recombinant GST-tagged human Mer (578 to 872 residues) cytoplasmic domain expressed in Baculovirus system using poly (Glu-Ala-Tyr) peptide as substrate after 1.5 hrs by ELISA.

The target of assay [3] is Tyrosine-protein kinase receptor UFO (Homo sapiens) (UniProt P30530). Description: Inhibition of recombinant His-tagged human Axl (473 to end residues) cytoplasmic domain expressed in insect system using poly (Glu-Ala-Tyr) peptide as substrate after 1.5 hrs by ELISA.
Tyrosine-protein kinase receptor UFO (Homo sapiens), sequence (P30530 whole entry, the tested form may be a part): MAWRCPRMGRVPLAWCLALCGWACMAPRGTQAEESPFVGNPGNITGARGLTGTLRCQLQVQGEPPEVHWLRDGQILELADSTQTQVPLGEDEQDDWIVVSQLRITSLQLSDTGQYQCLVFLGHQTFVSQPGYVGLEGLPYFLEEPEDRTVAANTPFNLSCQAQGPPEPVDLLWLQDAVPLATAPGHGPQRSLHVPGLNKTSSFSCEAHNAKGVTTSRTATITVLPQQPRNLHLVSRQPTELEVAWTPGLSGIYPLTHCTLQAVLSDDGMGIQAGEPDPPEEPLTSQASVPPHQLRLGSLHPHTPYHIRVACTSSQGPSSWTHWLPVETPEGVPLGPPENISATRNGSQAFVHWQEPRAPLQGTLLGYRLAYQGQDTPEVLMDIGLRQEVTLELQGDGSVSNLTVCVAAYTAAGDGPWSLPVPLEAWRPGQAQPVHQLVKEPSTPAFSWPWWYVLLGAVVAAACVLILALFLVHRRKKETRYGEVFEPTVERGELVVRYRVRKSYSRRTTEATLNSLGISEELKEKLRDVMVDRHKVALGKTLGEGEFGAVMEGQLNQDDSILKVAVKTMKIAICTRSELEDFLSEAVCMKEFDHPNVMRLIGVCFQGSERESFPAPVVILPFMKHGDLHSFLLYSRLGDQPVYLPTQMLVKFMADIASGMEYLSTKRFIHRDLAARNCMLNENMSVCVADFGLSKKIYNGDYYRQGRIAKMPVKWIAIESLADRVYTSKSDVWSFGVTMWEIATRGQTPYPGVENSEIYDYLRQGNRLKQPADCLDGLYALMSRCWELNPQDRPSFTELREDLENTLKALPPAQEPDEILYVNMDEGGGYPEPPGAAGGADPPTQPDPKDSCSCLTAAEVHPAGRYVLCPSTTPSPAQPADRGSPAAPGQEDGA
The test system of a further assay is RT-112. Description: Antiproliferative activity against human RT112 cells after 72 hrs by CellTiter-Glo assay. The class given is functional, cell-based. Background: In ATP-based viability assays light output follows the ATP content of the culture.
Assay [4] in a line: (§1) Antiproliferative activity against human MGHU3 cells after 72 hrs by CellTiter-Glo assay. The class given is functional, cell-based.
In the next assay the test system is A549. Description: Antiproliferative activity against human A549 cells after 72 hrs by CellTiter-Glo assay. It counts as functional, cell-based. The conditions noted are these: A549, 72 h.
The species named for the next assay is Homo sapiens. The description is as §1. It counts as functional, cell-based.

Molecules are shown by their SMILES. Activity calls are given as the source filed them. No cut-off for these calls is given here.

In the case of `CC(C)c1nc2c(Oc3ccc(NC(=O)c4cccn(-c5ccc(F)cc5)c4=O)cc3F)c(-c3ccc(O)cc3)cnc2[nH]1`, the inhibition entry in assay [1], in assay [2] and in assay [3] was “inactive” each time.
A word on the IC50: it is the concentration that gives 50% inhibition. On to `COc1cc2/c(=N/c3ccc(Br)cc3F)nc[nH]c2cc1OCC1CCN(C)CC1` [VANDETANIB], for which the IC50 lay in the range of 2.5 to 5 µM with RT-112 (RT-112, 72 h); 2.5 to 5 µM in assay [4]; 2.5 to 5 µM in the assay with A549.
Take `CCc1nc2c(Oc3ccc(NC(=O)c4cccn(-c5ccc(F)cc5)c4=O)cc3F)c(-c3ccoc3)cnc2[nH]1`: the inhibition result in assay [1], in assay [2] and in assay [3] was “inactive” each time.
As for `CC(C)c1nc2c(Oc3ccc(NC(=O)c4cccn(-c5ccc(F)cc5)c4=O)cc3F)c(-c3ccoc3)cnc2[nH]1`, the inhibition result in assay [1], in assay [2] and in assay [3] was “inactive” throughout.
For the compound `CCc1nc2c(Oc3ccc(NC(=O)c4cccn(-c5ccc(F)cc5)c4=O)cc3F)c(-c3cccnc3)cnc2[nH]1`, the inhibition entry in assay [1], in assay [2] and in assay [3] was “inactive” each time.
Regarding `O=C(Nc1ccc(Oc2c(-c3ccccc3)cnc3[nH]cnc23)c(F)c1)c1cccn(-c2ccc(F)cc2)c1=O`, the inhibition entry in assay [1], in assay [2] and in assay [3] was “inactive” each time.
`CC(C)c1nc2c(Oc3ccc(NC(=O)c4cccn(-c5ccc(F)cc5)c4=O)cc3F)c(-c3ccncc3)cnc2[nH]1`: the inhibition entry in assay [1], in assay [2] and in assay [3] was “inactive” throughout.
`CCOc1ccn(-c2ccc(F)cc2)c(=O)c1C(=O)Nc1ccc(Oc2ccnc(N)c2Cl)c(F)c1`: the result with RT-112 and in the assay filed under Homo sapiens was Active.
Regarding `CCc1nc2c(Oc3ccc(NC(=O)c4cccn(-c5ccc(F)cc5)c4=O)cc3F)c(-c3ccc(N(C)C)cc3)cnc2[nH]1`, the inhibition result in assay [1], in assay [2] and in assay [3] was “inactive” each time.
As to `CCc1nc2c(Oc3ccc(NC(=O)c4cccn(-c5ccc(F)cc5)c4=O)cc3F)c(-c3ccncc3)cnc2[nH]1`, the inhibition entry in assay [1], in assay [2] and in assay [3] was “inactive” throughout.
Turning to `CCc1nc2c(Oc3ccc(NC(=O)c4cccn(-c5ccc(F)cc5)c4=O)cc3F)c(-c3ccc(O)cc3)cnc2[nH]1`, the inhibition result in assay [1], in assay [2] and in assay [3] was “inactive” throughout.
As to `CC(C)c1nc2c(Oc3ccc(NC(=O)c4cccn(-c5ccc(F)cc5)c4=O)cc3F)c(-c3cccnc3)cnc2[nH]1`, the inhibition result in assay [1], in assay [2] and in assay [3] was “inactive” each time.
On to `CC(C)c1nc2c(Oc3ccc(NC(=O)c4cccn(-c5ccc(F)cc5)c4=O)cc3F)c(-c3ccc(N(C)C)cc3)cnc2[nH]1`, for which the inhibition entry in assay [1], in assay [2] and in assay [3] was “inactive” in each case.
Regarding `COc1cc2nccc(Oc3ccc(NC(=O)C4(C(=O)Nc5ccc(F)cc5)CC4)cc3)c2cc1OC`, the result in the assay with RT-112 and in the assay filed under Homo sapiens was Active.
